Results taken from patent US20240150755A1, “MODULATING REGULATORY T CELL FUNCTION IN AUTOIMMUNE DISEASE AND CANCER” (Salk Institute for Biological Studies, priority 2021, published 2024).
“Also recorded” adds a separate entry of the source.

Columns and labels:
Assay type in all cases: cell-based, mouse
H3K27ac = H3K27ac ChIP-seq in Treg cells; details: sgRNA transduced Treg cells
Description: Treg cells were collected and cross-linked first in 3 mM disuccinimidyl glutarate (DSG) in 1×PBS for thirty minutes then in 1% formaldehyde for another ten minutes, both at RT, for chromatin binding protein ChIP or in 1% formaldehyde only for histone modification ChIP. After quenching the excess cross-linker with a final concentration of 125 mM glycine, the cells were washed in 1× PBS, pelleted, flash-frozen in liquid nitrogen, and stored at −80° C. Cell pellets were thawed on ice and incubated in lysis solution (50 mM HEPES-KOH pH 8, 140 mM NaCl, 1 mM EDTA, 10% glycerol, 0.5% NP40, 0.25% Triton X-100) for ten minutes. The isolated nuclei were washed with wash solution (10 mM Tris-HCl pH 8, 1 mM EDTA, 0.5 mM EGTA, 200 mM NaCl) and shearing buffer (0.1% SDS, 1 mM EDTA, 10 mM Tris-HCl pH 8) then sheared in a Covaris® E229 sonicator for ten minutes to generate DNA fragments between ˜200-1000 base pairs (bp). After clarification of insoluble material by centrifugation, the chromatin was immunoprecipitated overnight at 4° C. with antibodies against Foxp3, Smarca4, Brd9, Phf10 or H3K27ac. […]
Single-end 50 bp or paired-end 42 bp reads were aligned to mouse genome mm10 using STAR alignment tool (V2.5) (Dobin et al., Bioinformatics 29:15-21, 2013). […]

Foxp3 target genes = assay: RNA-seq and gene set enrichment analysis in Treg cells; details: sgRNA transduced Treg cells vs sgNT
Description: (§1) For large scale Treg culture, Tregs were first expanded in Rosa-Cas9/Foxp3^Thy1.1 mice by injecting IL-2:IL-2 antibody immune complex according protocol described in Webster et. al (J Exp Med 206, 751-760, 2009). Spleen and lymph node Treg cells were labeled with PE-conjugated Thy1.1 antibody and isolated by magnetic selection using anti-PE microbeads (Mitenyl #130-048-801). All isolated Treg cells were activated by plate bound anti-CD3 and anti-CD28 antibodies and cultured with X-VIVO® 20 media (LONZA #04-448Q) supplemented by 1× Pen/Strep, 1× Sodium pyruvate, 1× HEPES, 1× GlutaMax™, 55 μM beta-mercaptoethanol in the presence of IL-2 at 500 units/mL. For experiments with Brd9 degradation, Treg cells were treated at day 0 with 2.5 μM dBRD9 (Tocris #6606) and cultured for four days for RNA- and ChIP-seq and 0.16-10 μM treated at day 0 and cultured dBRD9 for four days for Foxp3 MFI, cell viability and cell proliferation assays. Live cells were enriched by Ficoll-Paque® 1.084 (GE Health 17-5446-02) for RNA-seq and ChIP-seq.
RNA from 1-3×10^6 cells was extracted and purified with TRIzol™ reagent (Thermo Fisher) according to manufacturer's instructions. RNA-seq libraries were prepared using Illumina® TruSeq® Stranded mRNA kit following manufacturer's instructions with 5 μg of input RNA.
Single-end 50 bp reads were aligned to the mouse genome mm10 using STAR alignment tool (V2.5) (Dobin et al., Bioinformatics 29:15-21, 2013). RNA expression was quantified as raw integer counts using analyzeRepeats.pl in HOMER (Heinz et al., Mol Cell 38:576-589, 2010) using the following parameters: -strand both -count exons -condenseGenes -noadj. To identify differentially expressed genes, getDiffExpression.pl in HOMER was used, which uses the DESeq2R package to calculate the biological variation within replicates. Cut-offs were set at log 2 FC=0.585 and FDR at 0.05 (Benjamin-Hochberg). Principal Component Analysis (PCA) was performed with the mean of transcript per million (TPM) values using Cluster 3.0 with the following filter parameters: at least one observation with absolute value equal or greater than two and gene vector of four. TPM values were log transformed then centered on the mean.
GSEA software (Mootha et al., Nat Genet 34:267-273, 2003; Subramanian et al., PNAS 102:15545-15550, 2005) was used to perform the analyses with the following parameters: number of permutations=1000; enrichment statistic=weighted; and metric for ranking of genes=difference of classes (Input RNA-seq data was log-transformed). For GSEA analysis, input RNA-seq data contained the normalized log-transformed reads of the 1,325 differentially expressed genes (DEGs) in sgFoxp3/sgNT Treg cells. The compiled gene list included GSEA Gene Ontology, Immunological Signature, Curated Gene, and the up and down DEGs in sgBrd9/sgNT Treg cells.
For gene expression analysis in FIG. 42F, Foxp3 ChIP-seq tags were quantified at the union of sites bound by Foxp3 in sgNT and sgBrd9 using the annotatePeaks.pl command in HOMER with size-given and each site was annotated to a gene by mapping to the nearest TSS. Sites were ranked from least to largest Foxp3 ChIP-seq Log2FC in sgBrd9 vs sgNT and divided into quartiles. Gene expression for the genes in the top and bottom quartiles (Brd9-dependent and -independent, respectively) was then plotted using RNA-seq data from Treg cells transduced with sgBrd9, sgSmarcd1, or sgPbrm1 compared to sgNT. […]

Foxp3-bound sites = assay: Foxp3 ChIP-seq in Treg cells
Description: as §1
Treg cells were collected and cross-linked first in 3 mM disuccinimidyl glutarate (DSG) in 1×PBS for thirty minutes then in 1% formaldehyde for another ten minutes, both at RT, for chromatin binding protein ChIP or in 1% formaldehyde only for histone modification ChIP. After quenching the excess cross-linker with a final concentration of 125 mM glycine, the cells were washed in 1× PBS, pelleted, flash-frozen in liquid nitrogen, and stored at −80° C. Cell pellets were thawed on ice and incubated in lysis solution (50 mM HEPES-KOH pH 8, 140 mM NaCl, 1 mM EDTA, 10% glycerol, 0.5% NP40, 0.25% Triton X-100) for ten minutes. The isolated nuclei were washed with wash solution (10 mM Tris-HCl pH 8, 1 mM EDTA, 0.5 mM EGTA, 200 mM NaCl) and shearing buffer (0.1% SDS, 1 mM EDTA, 10 mM Tris-HCl pH 8) then sheared in a Covaris® E229 sonicator for ten minutes to generate DNA fragments between ˜200-1000 base pairs (bp). After clarification of insoluble material by centrifugation, the chromatin was immunoprecipitated overnight at 4° C. with antibodies against Foxp3, Smarca4, Brd9, Phf10 or H3K27ac. The next day, the antibody bound DNA was incubated with Protein A+G Dynabeads™ (Invitrogen) in ChIP buffer (50 mM HEPES-KOH pH 7.5, 300 mM NaCl, 1 mM EDTA, 1% Triton X-100, 0.1% DOC, 0.1% SDS), washed and treated with Proteinase K and RNase A. Cross-linking was reversed by incubation at 55° C. for two and a half hours. Purified ChIP DNA was used for library generation (NuGen Ovation® Ultralow Library System V2) according to manufacturer's instructions for subsequent sequencing.
Single-end 50 bp or paired-end 42 bp reads were aligned to mouse genome mm10 using STAR alignment tool (V2.5) (Dobin et al., Bioinformatics 29:15-21, 2013). ChIP-Seq peaks were called using findPeaks within HOMER using parameters for histone (-style histone) or transcription factor (-style factor) (homer.ucsd.edu/homer/index.html). Peaks were called when enriched >two-fold over input and >four-fold over local tag counts, with FDR 0.001. For histone ChIP, peaks within a 1000 bp range were stitched together to form regions. Differential ChIP peaks were found by merging peaks from control and experiment groups and called using getDiffExpression.pl with fold change ≥1.5 or ≤−1.5, Poisson p value<0.0001.

Treg cells [1] = assay: Cell viability by Ghost Dye in Treg cells; details: dBRD9 in increasing concentrations for 4 days
Description: as §1

Treg cells [2] = assay: In vitro Treg suppression assay
Description: Treg cells were transduced by retrovirus expressing sgRNA targeting gene of interest and cultured in X-VIVO® complete media supplemented with IL-2 (500 U/ml). Four days after transduction, transduced cells were […] a fluorescence-activated cell sorter (FACS). CD45.1+ naive CD4 T cells (CD4^+CD25^−CD44^loCD62^hi) were labeled with CellTrace™ Violet (Thermo Fisher Scientific #C34571) in different ratio in the presence of irradiated T cell depleted spleen cells as antigen-presenting cells (APC). Three days later, Treg suppression function was measured by the percentage of non-dividing cells within the CD45.1^+ effector T cell population. For dBRD9 treatment experiment, dBRD9 was first dissolved in DMSO (10 mM stock) and added into Treg:Teff:APC mixture at 2.5 μM. For Foxp3 overexpression rescue experiment, Treg cells were first transduced with sgNT or sgBrd9 at 24 hour post-activation, and then transduced with MIGR empty vector or MIGR-Foxp3 at 48 hour post-activation. Double transduced Treg cells were FACS sorted on day 4 based on NGFR+ and GFP+ markers and then mixed with CellTrace™ labeled effector T cells in the presence of APC. Treg suppression readout was measured after three days of co-culture.

Foxp3 = Foxp3 expression (MFI) in Treg cells by flow cytometry
Description: as §1
HEK293T cells were seeded in 6-wells plate at 0.5 million cells per 2 mL DMEM media supplemented by 10% FBS, 1% Pen/Strep, 1× GlutaMax®, 1× Sodium Pyruvate, 1× HEPES, and 55 μM beta-mercaptoethanol. […] Transduced cells were analyzed for Foxp3 and cytokine expression in eBioscience® Fix/Perm buffer (eBioscience #00-5523-00) using flow cytometry. […]

Treg cells [3] = assay: Cell division by CellTrace dilution in Treg cells; details: dBRD9 in increasing concentrations for 4 days
Description: as §1

Compound: sgFoxp3: sgRNA targeting Foxp3, TCTACCCACAGGGATCAATG (SEQ ID NO: 1) (expressed or natural sequence)
- H3K27ac at Brd9-dependent Foxp3 sites (H3K27ac): reduction in H3K27ac
- genes with increased expression (Foxp3 target genes; RNA-seq): 532 genes
- genes with reduced expression (Foxp3 target genes; RNA-seq): 793 genes
- Foxp3 binding at CNS2/CNS0 (Foxp3-bound sites; sgRNA transduced Treg cells): dramatic reduction in Foxp3 binding at CNS2/CNS0
- Foxp3 binding sites at which Foxp3 binding was lost (Foxp3-bound sites; sgRNA transduced Treg cells, genome-wide): over 85%

Compound: COc1cc(-c2cn(C)c(=O)c3cnccc23)cc(OC)c1CN(C)CC(=O)NCCOCCOCCNc1cccc2c1C(=O)N(C1CCC(=O)NC1=O)C2=O (stereo not shown) [dBRD9]
- cell viability (Treg cells [1]): without affecting cell viability
- T effector responses (Treg cells [2]; dBRD9 2.5 μM, in vitro): without impairing T effector responses
- Treg suppressor function (Treg cells [2]; dBRD9 added to Treg:Teff:APC mixture at 2.5 μM): significantly and specifically compromised Treg suppressor function; also recorded: reduces Treg suppressor activity
- Foxp3 expression (MFI) (Foxp3; Treg cells, 0.16-10 μM dBRD9 for 4 days vs DMSO): significantly decreased Foxp3 expression in Treg cells in a concentration-dependent manner; also recorded: reduces Foxp3 expression
- Foxp3 binding to chromatin (Foxp3-bound sites; Treg cells, 2.5 μM dBRD9 for 4 days vs DMSO): diminished Foxp3 binding to chromatin at a subset of Foxp3 target sites
- cell proliferation (Treg cells [3]): without affecting cell viability or proliferation; also recorded: without affecting cell viability and proliferation

Compound: sgPbrm1: sgRNA targeting Pbrm1, AAAACACTTGCATAACGATG (SEQ ID NO: 8) (expressed or natural sequence)
- Foxp3 binding at CNS2/CNS0 (Foxp3-bound sites; sgRNA transduced Treg cells): subtle increase in Foxp3 binding at CNS2/CNS0
- Foxp3 binding at a subset of Foxp3 sites (Brd9-dependent sites) (Foxp3-bound sites; sgRNA transduced Treg cells, FC1.5, Poisson p<0.0001): did not change

Compound: sgSmarcd1: sgRNA targeting Smarcd1, CAATCCGGCTAAGTCGGACG (SEQ ID NO: 15) (expressed or natural sequence)
- gene expression of Brd9-dependent vs Brd9-independent Foxp3 target genes (Foxp3 target genes): significantly more affected

Compound: sgUsp22: sgRNA targeting Usp22, GCCATCGACCTGATGTACGG (SEQ ID NO: 18) (expressed or natural sequence)
- Treg suppressor activity (Treg cells [2]; sgRNA transduced Treg cells vs sgNT): compromised Treg suppressor activity
- Foxp3 expression (MFI) (Foxp3; sgRNA transduced Cas9 Treg cells vs sgNT): reduces Foxp3 expression
